Data taken from patent US8183256B2, “Remedy or preventive for integration dysfunction syndrome” (Toray Industries, Inc., priority 2008, dated 2012).

Tests used:
[1] = tested on: PCP-induced hyperlocomotion; assay: Mouse PCP-induced hyperlocomotion; format: in vivo; settings: ddy male mice, PCP 10 mg/kg s.c.
[2] = tested on: Prepulse Inhibition (PPI); assay: Startle response in rat prepulse inhibition (PPI) model; format: in vivo; settings: SD male rats
Excerpt: Further, the fact that there is no risk, in the above-described compound or a pharmaceutically acceptable acid addition salt thereof, of causing impaired information processing related to cognitive deficiencies which is a symptom of schizophrenia can be confirmed by investigating the effect of the compound on the phenomenon wherein the startle response to a startle stimulus (pulse) in an animal is inhibited by presentation of a weak stimulus (prepulse) prior to presentation of a startle stimulus (pulse) (Prepulse Inhibition, PPI) according to the method described in Bio. Psychiatry., 57, 1550, 2005. In this method, inhibition of PPI indicates abnormality in information processing, and is known to reflect cognitive deficiencies, which is a symptom of schizophrenia, and the like.
In the experiments, 8 SD male rats of 9 to 10 weeks old were used per each group. The measurement was carried out using an apparatus for measuring startle responses of small animals (San Diego Instruments). […]

C=C1CC[C@@]2(O)[C@H]3Cc4ccc(O)c5c4[C@@]2(CCN3CC2CC2)[C@H]1O5 [Nalmefene]
effect on the amount of locomotion (PCP-induced hyperlocomotion) ([1]; test compound at 10 mg/kg s.c.): did not have any effect

c1ccc(C2(N3CCCCC3)CCCCC2)cc1 [Phencyclidine]
effect on PPI (% Prepulse Inhibition) ([2]; positive control at 4 mg/kg, p<0.05 against the vehicle-administered group): statistically significant inhibitory effect on PPI

CN(C(=O)/C=C/c1ccoc1)[C@@H]1CC[C@@]2(O)[C@H]3Cc4ccc(O)c5c4[C@@]2(CCN3CC2CC2)[C@H]1O5.Cl [Compound 1, (−)-17-(Cyclopropylmethyl)-3,14β-Dihydroxy-4,5α-Epoxy-6β-[N-Methyl-Trans-3-(3-Furyl)Acrylamido]Morphinan Hydrochloric Acid Salt]
effect on PPI (% Prepulse Inhibition) ([2]; 0.03 mg/kg s.c., 30 minutes before stimulation session, 80 dB prepulse, 120 dB pulse): did not inhibit PPI | dose statistically significantly inhibiting PCP-induced hyperlocomotion ([1]; test compound s.c. 1 minute before PCP, locomotor counts, vs vehicle-administered group): ≥ 0.01 mg/kg
